Test results taken from patent US9221800B2, “Isoxazole treatments for diabetes” (The Board of Regents of the University of Texas System, priority 2011, dated 2015).

How the values were obtained:
[1] = molecular target: T1, p300 (Homo sapiens, UniProt Q09472); experiment: HAT activity of HATs expressed in 293 cells; format: cell-based; conditions: combination of ERK2 expression and Isx, 24 h (FIG. 8)
T1 construct: expressed in transfected cells; host or cells: HEK293
Description: (§2) (FIG. 8A) Combined effect of Isx treatment for 24 h and WT ERK2 (W) or kinase dead K52R ERK2 (R) on the HAT activities of p300, and (FIG. 8B) other HATs, CBP, PCAF and GCN5-L2, transfected in HEK293 cells.

[2] = system: human islets; experiment: Insulin secretion and insulin content (ELISA) of cultured human islets; format: cell-based
Description: (§1) FIGS. 1A-E. Isx (LSH-1) induces expression of insulin and transcription factors in primary cultured human islets. (FIG. 1A) Primary human islets that had been cultured in RPMI 160 for 6 months were treated with vehicle or 40 μM Isx for 1 or 2 d. Expression of human insulin and glucagon genes was assessed by Taqman quantitative RT-PCR. (FIG. 1B) Insulin secretion measured by ELISA over 24 h from islets treated with Isx or vehicle for 1 or 2 d. (FIG. 1C) Total insulin content of islets cultured for 3 mo and fresh islets, each treated for 48 h with Isx or DMSO. (FIG. 1D) Time course of pancreatic gene induction in islets cultured for 1 year treated with DMSO (8 days) or 40 μM Isx for 2, 4 or 8 days. (FIG. 1E) Immunohistochemical staining using antibodies against insulin, BETA2, Neurogenin3 (Ngn3) and MafA of islets cultured for 2 months and treated with Isx or vehicle for 48 h. Nuclei were stained with DAPI.
FIGS. 5A-E. Gene expression induced by Isx (LSH-1) in human islet cultures. (FIG. 5A) Structure of the lead compound N-cyclopropyl-5-(thiophen-2-yl)isoxazole-3-carboxamide (Isx) used in this study. (FIG. 5B) Expression profiles of relevant islet factors by Sybr-Green qPCR analyses from human islets cultured for 1 year as in FIG. 1D. (FIG. 5C) Insulin immunohistochemical staining in human islets cultured for 2 months. Nuclei are stained with DAPI. (FIG. 5D) Immunoblotting of whole cell extracts from human islets cultured for six months treated with vehicle (DMSO) or Isx for 24 h. (FIG. 5E) Human islets cultured for 6 months were treated with DMSO (Veh) or Isx for 48 h. To implicate signaling pathways that are required for the isoxazole-driven increase in β cell function, measured as GSIS, the isoxazole-treated islets were also treated with vehicle (Veh), 10 μM U0126 (U), 10 μM Nifedipine-BAPTA (N-B), or 0.1 μM wortmannin (W) for the duration of the isoxazole treatment.
MIN6 cells were cultured in DMEM (Gibco), containing 25 mM glucose, 10% fetal bovine serum, 10 mM Hepes pH 7.4, 10.2 mM L-glutamine, […] sodium pyruvate, 2.5 mM β-mercaptoethanol, 100 U/ml penicillin and 100 μg/ml streptomycin at 37° C. in 10% CO2. Human islets were obtained from the ICR Basic Science Islet Distribution and from the University of Alabama, Birmingham Islet Resource Facility and were cultured in RPMI 1640 with 11 mM glucose for up to 1 year. The medium was changed twice weekly and the islets were subcultured when they reached 90% confluence. For Isx treatments, cells were incubated in medium containing either Isx or the equivalent volume of DMSO vehicle (0.04%). […]

[3] = molecular target: T2, CBP (Homo sapiens, UniProt Q92793); experiment: HAT activity of HATs expressed in 293 cells; format: cell-based; conditions: combination of ERK2 expression and Isx, 24 h (FIG. 8)
T2 construct: expressed in transfected cells; host or cells: HEK293
Description: as §2

[4] = system: MIN6 cells; experiment: Insulin secretion (GSIS) and insulin content in MIN6 cells; format: cell-based, mouse
Description: MIN6 cells were cultured in DMEM (Gibco), containing 25 mM glucose, 10% fetal bovine serum, 10 mM Hepes pH 7.4, 10.2 mM L-glutamine, […] sodium pyruvate, 2.5 mM β-mercaptoethanol, 100 U/ml penicillin and 100 μg/ml streptomycin at 37° C. in 10% CO2. Human islets were obtained from the ICR Basic Science Islet Distribution and from the University of Alabama, Birmingham Islet Resource Facility and were cultured in RPMI 1640 with 11 mM glucose for up to 1 year. The medium was changed twice weekly and the islets were subcultured when they reached 90% confluence. For Isx treatments, cells were incubated in medium containing either Isx or the equivalent volume of DMSO vehicle (0.04%). To measure GSIS, cells were placed in Krebs-Ringer bicarbonate/Hepes containing 0.1% bovine serum albumin and 2 mM glucose for 2 h, and stimulated for 15 min with 20 mM glucose, a 1× amino-acid mixture (concentrations as in DMEM), or 50 nM Exendin-4. U0126 (10 μM), nifedipine (3 μM), BAPTA (10 μM), wortmanin (0.5 μM) or FK506 (0.1 μM) were added for 1-24 h as indicated.

[5] = system: insulin gene promoter; experiment: ChIP analysis of association with the insulin promoter in MIN6 cells; format: cell-based, mouse
Description: ChIP was as described (Lawrence et al., 2008) with the following modifications. Chromatin was cross-linked with 1% formaldehyde and sonicated with a Bioruptor 200 (Diagenode) in an ice cold water bath. Antibodies immobilized on protein A-Sepharose beads were used for immunoprecipitation. ChIP products were analyzed by real-time Q-PCR as previously described for real-time PCR analysis (Lawrence et al., 2008) using the following primers (5′-CAGACCTAGCACCAGGG-3′ (SEQ ID NO:1) and 5′-GGACTTTGCTGTTTGTCCC-3′ (SEQ ID NO:2)) to amplify the −157/−50 fragment of the mouse insulin promoter encompassing the C1 (MafA), E1 (BETA2) and A1 (PDX-1) binding sites. The results were expressed relative to input and presented as mean+/− SEM of at least two independent experiments in triplicate.

[6] = system: human islets; experiment: Immunohistochemical staining of cultured human islets; format: cell-based; conditions: islets in culture for 2 months, Isx for 2 days (FIG. 1E)
Description: as §1

T2 sequence (Q92793 whole entry): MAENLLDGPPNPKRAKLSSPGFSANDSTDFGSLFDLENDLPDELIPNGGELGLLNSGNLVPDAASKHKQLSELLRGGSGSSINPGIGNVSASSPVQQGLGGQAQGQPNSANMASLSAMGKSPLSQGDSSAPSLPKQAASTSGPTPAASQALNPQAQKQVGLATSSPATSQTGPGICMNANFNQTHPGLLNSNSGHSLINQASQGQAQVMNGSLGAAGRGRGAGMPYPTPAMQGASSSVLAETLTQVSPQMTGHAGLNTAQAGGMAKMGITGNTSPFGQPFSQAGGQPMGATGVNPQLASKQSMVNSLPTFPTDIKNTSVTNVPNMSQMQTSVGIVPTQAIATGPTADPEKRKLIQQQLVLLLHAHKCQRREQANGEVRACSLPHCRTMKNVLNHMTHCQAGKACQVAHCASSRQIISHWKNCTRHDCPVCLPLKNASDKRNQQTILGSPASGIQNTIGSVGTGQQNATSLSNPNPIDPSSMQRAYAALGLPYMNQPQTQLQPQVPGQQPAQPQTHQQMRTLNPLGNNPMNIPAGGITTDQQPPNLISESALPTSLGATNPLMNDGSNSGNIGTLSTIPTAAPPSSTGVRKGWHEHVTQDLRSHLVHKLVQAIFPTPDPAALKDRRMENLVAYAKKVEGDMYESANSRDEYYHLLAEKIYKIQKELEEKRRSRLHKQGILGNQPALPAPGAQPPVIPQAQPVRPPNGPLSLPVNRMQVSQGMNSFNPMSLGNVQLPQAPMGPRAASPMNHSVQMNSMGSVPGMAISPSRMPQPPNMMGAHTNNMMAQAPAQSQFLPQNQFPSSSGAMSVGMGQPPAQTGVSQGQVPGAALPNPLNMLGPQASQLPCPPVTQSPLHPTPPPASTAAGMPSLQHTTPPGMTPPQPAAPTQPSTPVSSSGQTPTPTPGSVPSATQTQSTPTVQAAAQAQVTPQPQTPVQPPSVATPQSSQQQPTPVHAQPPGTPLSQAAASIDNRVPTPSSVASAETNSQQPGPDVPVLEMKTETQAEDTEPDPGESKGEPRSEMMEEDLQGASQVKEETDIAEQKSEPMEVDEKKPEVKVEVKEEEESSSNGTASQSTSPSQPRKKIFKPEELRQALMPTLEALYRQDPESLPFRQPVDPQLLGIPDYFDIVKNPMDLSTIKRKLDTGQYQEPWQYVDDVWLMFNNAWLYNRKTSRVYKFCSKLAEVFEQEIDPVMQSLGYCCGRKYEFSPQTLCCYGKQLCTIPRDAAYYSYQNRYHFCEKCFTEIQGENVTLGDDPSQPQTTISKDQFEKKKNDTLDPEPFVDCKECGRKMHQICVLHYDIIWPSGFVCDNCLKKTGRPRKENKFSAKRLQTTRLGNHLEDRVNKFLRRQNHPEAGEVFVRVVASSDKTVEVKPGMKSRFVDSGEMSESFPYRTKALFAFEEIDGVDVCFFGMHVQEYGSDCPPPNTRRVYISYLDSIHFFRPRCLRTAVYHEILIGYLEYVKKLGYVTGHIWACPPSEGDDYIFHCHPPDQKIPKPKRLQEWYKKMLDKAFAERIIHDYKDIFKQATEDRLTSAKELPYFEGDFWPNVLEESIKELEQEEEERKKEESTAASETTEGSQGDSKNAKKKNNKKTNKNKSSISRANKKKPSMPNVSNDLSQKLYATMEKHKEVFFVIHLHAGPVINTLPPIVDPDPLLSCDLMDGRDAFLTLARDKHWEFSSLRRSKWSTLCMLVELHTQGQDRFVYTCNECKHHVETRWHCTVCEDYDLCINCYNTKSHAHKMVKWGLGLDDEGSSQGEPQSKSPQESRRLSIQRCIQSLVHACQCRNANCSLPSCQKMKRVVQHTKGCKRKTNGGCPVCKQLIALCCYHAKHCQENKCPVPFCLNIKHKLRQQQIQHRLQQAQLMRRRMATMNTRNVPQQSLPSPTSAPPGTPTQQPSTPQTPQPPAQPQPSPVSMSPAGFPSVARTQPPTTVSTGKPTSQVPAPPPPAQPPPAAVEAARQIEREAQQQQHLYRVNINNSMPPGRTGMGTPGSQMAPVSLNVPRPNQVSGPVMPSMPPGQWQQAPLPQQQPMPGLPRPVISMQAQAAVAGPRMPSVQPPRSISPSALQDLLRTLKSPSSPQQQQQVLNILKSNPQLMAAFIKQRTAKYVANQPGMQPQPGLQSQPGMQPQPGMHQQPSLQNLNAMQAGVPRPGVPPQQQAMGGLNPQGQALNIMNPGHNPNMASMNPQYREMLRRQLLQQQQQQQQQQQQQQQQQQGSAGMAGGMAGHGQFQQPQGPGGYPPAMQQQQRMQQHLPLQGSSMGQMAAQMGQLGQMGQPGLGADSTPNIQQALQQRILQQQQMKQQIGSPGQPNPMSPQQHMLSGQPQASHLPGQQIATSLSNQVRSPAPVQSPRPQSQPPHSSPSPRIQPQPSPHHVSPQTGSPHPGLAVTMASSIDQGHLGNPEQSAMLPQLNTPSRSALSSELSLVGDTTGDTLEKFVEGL
T1 sequence (Q09472 whole entry, species assumed): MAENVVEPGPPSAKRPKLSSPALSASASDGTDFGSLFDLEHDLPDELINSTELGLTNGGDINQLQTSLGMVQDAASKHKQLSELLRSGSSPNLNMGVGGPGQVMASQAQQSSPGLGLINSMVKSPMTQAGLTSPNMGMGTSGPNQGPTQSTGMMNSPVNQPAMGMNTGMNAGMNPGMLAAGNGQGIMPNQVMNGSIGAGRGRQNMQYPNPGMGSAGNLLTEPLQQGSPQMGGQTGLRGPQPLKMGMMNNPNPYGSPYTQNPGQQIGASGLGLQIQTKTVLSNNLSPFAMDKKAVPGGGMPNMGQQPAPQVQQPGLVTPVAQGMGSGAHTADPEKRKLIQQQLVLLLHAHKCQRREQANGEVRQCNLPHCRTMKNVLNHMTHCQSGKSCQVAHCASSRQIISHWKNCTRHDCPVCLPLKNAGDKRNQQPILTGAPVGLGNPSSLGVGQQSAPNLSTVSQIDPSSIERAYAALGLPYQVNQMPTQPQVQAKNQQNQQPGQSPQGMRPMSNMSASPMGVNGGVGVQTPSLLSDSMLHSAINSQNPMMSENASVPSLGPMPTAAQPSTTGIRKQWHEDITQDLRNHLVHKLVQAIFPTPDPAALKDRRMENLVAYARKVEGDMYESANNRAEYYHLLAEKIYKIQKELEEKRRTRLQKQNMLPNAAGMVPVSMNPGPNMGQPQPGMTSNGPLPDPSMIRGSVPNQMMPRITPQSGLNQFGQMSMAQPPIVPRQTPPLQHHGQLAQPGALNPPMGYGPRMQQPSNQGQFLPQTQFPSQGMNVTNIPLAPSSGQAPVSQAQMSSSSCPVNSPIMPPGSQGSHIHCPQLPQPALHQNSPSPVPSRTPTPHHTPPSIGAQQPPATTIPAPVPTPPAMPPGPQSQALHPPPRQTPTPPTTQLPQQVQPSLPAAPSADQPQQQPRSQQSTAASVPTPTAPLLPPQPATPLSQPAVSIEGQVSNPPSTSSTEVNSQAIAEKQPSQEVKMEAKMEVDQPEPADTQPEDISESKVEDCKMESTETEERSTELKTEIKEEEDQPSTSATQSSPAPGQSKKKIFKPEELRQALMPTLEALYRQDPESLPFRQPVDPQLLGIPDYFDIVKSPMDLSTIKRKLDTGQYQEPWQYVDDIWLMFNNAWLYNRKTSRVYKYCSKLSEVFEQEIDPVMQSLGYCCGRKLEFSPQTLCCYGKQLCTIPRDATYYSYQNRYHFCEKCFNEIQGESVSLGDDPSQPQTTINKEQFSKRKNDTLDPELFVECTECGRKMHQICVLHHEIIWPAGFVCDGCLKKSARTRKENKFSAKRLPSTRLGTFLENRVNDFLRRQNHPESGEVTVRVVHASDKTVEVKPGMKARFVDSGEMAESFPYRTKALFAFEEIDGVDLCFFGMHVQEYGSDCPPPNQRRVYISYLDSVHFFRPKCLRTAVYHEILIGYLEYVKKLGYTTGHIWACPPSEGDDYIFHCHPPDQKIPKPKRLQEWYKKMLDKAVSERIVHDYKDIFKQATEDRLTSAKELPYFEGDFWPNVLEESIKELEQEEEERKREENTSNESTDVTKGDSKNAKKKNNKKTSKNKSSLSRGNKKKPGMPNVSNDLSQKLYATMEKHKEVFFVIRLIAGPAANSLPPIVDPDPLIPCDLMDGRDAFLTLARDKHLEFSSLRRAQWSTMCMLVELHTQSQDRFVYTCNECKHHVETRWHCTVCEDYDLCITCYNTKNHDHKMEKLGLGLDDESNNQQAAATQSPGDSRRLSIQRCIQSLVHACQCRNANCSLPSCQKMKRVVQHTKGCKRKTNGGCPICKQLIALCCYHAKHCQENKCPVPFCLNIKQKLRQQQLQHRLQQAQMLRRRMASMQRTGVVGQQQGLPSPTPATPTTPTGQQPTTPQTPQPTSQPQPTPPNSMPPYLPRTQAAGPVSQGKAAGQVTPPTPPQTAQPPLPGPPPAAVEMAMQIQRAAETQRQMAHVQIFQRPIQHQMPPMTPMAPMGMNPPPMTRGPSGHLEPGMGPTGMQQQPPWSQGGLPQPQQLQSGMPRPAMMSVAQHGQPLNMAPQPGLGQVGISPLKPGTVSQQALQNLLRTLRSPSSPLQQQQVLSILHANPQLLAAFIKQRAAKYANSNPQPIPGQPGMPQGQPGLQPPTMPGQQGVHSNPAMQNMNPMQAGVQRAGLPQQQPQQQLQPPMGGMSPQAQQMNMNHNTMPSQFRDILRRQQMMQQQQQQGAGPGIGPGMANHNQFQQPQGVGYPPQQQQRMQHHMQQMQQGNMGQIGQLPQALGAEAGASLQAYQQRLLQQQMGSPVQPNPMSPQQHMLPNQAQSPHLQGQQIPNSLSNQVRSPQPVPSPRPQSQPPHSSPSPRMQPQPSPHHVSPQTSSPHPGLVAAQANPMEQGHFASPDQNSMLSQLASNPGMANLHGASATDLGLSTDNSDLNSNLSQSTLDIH

O=C(NC1CC1)c1cc(-c2cccs2)on1 [Isx, N-cyclopropyl-5-(thiophen-2-yl)isoxazole-3-carboxamide]
p300 HAT activity [1]: increased | increase of insulin content of fresh islets ([2]; 2-day exposure to Isx): ~25% | Insulin content relative to the insulin content of islets isolated only 1 week earlier ([2]; 3 month-old islets treated with Isx (FIG. 1C)): ~75% | Insulin content increase ([2]; 3 month-old islets, Isx 48 h (FIG. 1C)): ~10 fold | Insulin secreted over a 24-h period ([2]; human islets in culture for 6 months, Isx 1 or 2 d (FIG. 1B)): markedly increased | CBP HAT activity [3]: increased | insulin content ([4]; Isx 24 or 48 h (FIG. 2D)): relatively small increase | Glucose-stimulated insulin secretion (GSIS) increase ([4]; Isx pretreatment 48 h (FIG. 2C)): ~4 fold | increase of stimulation of insulin secretion by glucose, amino acids and exendin-4, individually and in combination ([4]; Isx pretreatment 48 h (FIG. 2E)): 2 to 5 fold | Chromatin recruitment of p300 to the insulin promoter upon stimulation by glucose ([5]; Isx pretreatment 24 h): increased | chromatin binding of BETA2 and MafA to the insulin gene promoter ([5]; compared with glucose stimulation (FIGS. 3D-E)): Comparable or greater | Ngn3, BETA2, and insulin immunostaining [6]: obvious increase
